Among the data in ChEMBL document CHEMBL1138938, “Design, synthesis, and SAR studies on a series of 2-pyridinylpiperazines as potent antagonists of the melanocortin-4 receptor” (Bioorg Med Chem Lett, 2006) are Ki, bioavailability and CLint scaled values, retold here.

SMILES strings stand for the structures.

Broadly, the Ki is a dissociation constant, usually derived from enzyme kinetics or from competition with a known ligand. High values mean lower affinity, low ones higher affinity. As usually defined, the bioavailability is dose-corrected exposure relative to a reference, in per cent. The low end stands for poor availability, the high end for good availability. As a reminder, the CLint scaled is the rate of metabolic loss divided by the concentration. Read a high CLint scaled as faster metabolism.

One series concerns the target Melanocortin receptor 4 (Homo sapiens, UniProt P32245). The experiment in a line: Displacement of [125I]NDP-MSH from human MC4R expressed in HEK293 cells. Format: cell-based. Background: Displacement assays read how much labelled ligand stays bound in the presence of the test substance.
Series [1] can be described thus: Oral bioavailability in rat. The class given is ADME, organism-based. The note with it: in vivo.
A short description of series [2]: Intrinsic clearance in rat liver microsome. Format: ADME. The note with it: liver microsomes. Background: Liver microsomes are a subcellular fraction often used to study metabolism.
The target of the next series is Melanocortin receptor 5 (Homo sapiens, UniProt P33032). The experiment in a line: Displacement of [125I]NDP-MSH from human MC5R expressed in HEK293 cells. The class given is cell-based.
Chain of Melanocortin receptor 5 (P33032 whole entry): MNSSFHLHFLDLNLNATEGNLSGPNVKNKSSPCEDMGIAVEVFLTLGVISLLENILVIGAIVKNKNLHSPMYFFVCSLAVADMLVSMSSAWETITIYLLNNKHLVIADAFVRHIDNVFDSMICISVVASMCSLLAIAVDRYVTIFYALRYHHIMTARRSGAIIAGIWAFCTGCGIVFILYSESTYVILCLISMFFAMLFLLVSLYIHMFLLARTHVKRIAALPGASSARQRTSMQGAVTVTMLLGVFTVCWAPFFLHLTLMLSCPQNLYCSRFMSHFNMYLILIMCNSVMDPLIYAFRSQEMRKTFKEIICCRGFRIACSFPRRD
Another series deals with Melanocortin receptor 3 (Homo sapiens, UniProt P41968). The experiment in a line: Displacement of [125I]NDP-MSH from human MC3R expressed in HEK293 cells. The class given is cell-based.
Chain of Melanocortin receptor 3 (P41968 whole entry): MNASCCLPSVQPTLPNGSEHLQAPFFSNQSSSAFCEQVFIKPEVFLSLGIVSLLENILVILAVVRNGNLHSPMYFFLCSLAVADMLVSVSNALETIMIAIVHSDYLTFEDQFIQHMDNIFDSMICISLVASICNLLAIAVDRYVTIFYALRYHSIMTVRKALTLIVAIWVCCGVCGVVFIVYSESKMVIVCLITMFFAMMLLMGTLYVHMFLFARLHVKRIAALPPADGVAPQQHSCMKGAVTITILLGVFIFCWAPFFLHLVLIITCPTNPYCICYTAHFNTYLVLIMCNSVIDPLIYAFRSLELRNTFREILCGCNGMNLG

Chain of Melanocortin receptor 4 (P32245 whole entry): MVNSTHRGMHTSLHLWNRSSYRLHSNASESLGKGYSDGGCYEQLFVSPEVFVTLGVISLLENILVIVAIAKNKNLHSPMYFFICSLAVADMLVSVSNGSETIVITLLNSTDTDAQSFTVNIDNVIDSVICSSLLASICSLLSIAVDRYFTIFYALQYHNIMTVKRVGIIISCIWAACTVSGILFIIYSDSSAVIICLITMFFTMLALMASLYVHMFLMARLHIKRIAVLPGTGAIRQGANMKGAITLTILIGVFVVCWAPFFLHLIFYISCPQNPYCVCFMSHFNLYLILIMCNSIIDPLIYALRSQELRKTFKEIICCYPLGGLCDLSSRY

In the case of `COc1ccccc1CCNCc1ccccc1N1CCN(C(=O)[C@@H](Cc2ccc(Cl)cc2Cl)NC(=O)CCN)CC1`, the Ki at Melanocortin receptor 4 is 1.6 nM.

On Melanocortin receptor 4, `CC(C)NC(=O)NCc1cccnc1N1CCN(C(=O)[C@@H](Cc2ccc(Cl)cc2Cl)NC(=O)CCN)CC1` came in with a Ki of 1300 nM.

At Melanocortin receptor 4, `CCC(CO)NCc1cccnc1N1CCN(C(=O)[C@@H](Cc2ccc(Cl)cc2Cl)NC(=O)CCN)CC1` (stereo not given in full) gave a Ki of 710 nM.

As to `NCCC(=O)N[C@H](Cc1ccc(Cl)cc1Cl)C(=O)N1CCN(c2ncccc2CNCCO)CC1`, the affinity at Melanocortin receptor 4 corresponds to a Ki of 520 nM.

Compound `NCCC(=O)N[C@H](Cc1ccc(Cl)cc1Cl)C(=O)N1CCN(c2ncccc2CNC(=O)c2ccco2)CC1` came in with a Ki at Melanocortin receptor 4 of 2600 nM.

As to `NCCC(=O)N[C@H](Cc1ccc(Cl)cc1Cl)C(=O)N1CCN(c2ncccc2CNC(=O)NCc2cccs2)CC1`, at Melanocortin receptor 4, the affinity, expressed as Ki, was 750 nM.

Take `COCC(C)NCc1ccccc1N1CCN(C(=O)[C@@H](Cc2ccc(Cl)cc2Cl)NC(=O)CCN)CC1` (stereo not given in full): on Melanocortin receptor 4, the Ki was 8.8 nM.

Regarding `NCCC(=O)N[C@H](Cc1ccc(Cl)cc1Cl)C(=O)N1CCN(c2ncccc2CNC(=O)c2ccc(F)cc2)CC1`, the Ki on Melanocortin receptor 4 was found to be 2200 nM.

For `CC(CO)NCc1cccnc1N1CCN(C(=O)[C@@H](Cc2ccc(Cl)cc2Cl)NC(=O)CCN)CC1C` (stereo not given in full), on Melanocortin receptor 4, affinity was put at a Ki of 420 nM.

`CC(=O)NCc1cccnc1N1CCN(C(=O)[C@@H](Cc2ccc(Cl)cc2Cl)NC(=O)CCN)CC1`: affinity at Melanocortin receptor 4 was put at a Ki of 2800 nM.

Regarding `COc1ccccc1CC(=O)NCc1cccnc1N1CCN(C(=O)[C@@H](Cc2ccc(Cl)cc2Cl)NC(=O)CCN)CC1`, the Ki at Melanocortin receptor 4 worked out at 360 nM.

For the compound `NCCC(=O)N[C@H](Cc1ccc(Cl)cc1Cl)C(=O)N1CCN(c2ncccc2CNC(=O)Cc2ccc(F)cc2)CC1`, the Ki at Melanocortin receptor 4 came out at 1000 nM.

Compound `NCCC(=O)N[C@H](Cc1ccc(Cl)cc1Cl)C(=O)N1CCN(c2ncccc2CNC(=O)Nc2ccccc2F)CC1` registered a Ki at Melanocortin receptor 4 of 1100 nM.

In turn, `NCCC(=O)N[C@H](Cc1ccc(Cl)cc1Cl)C(=O)N1CCN(c2ncccc2CNC(=O)NCc2ccccc2F)CC1` returned an inhibition constant (Ki) at Melanocortin receptor 4 of 1000 nM.

`NCCC(=O)N[C@H](Cc1ccc(Cl)cc1Cl)C(=O)N1CCN(c2ncccc2CNC(=O)Oc2ccccc2)CC1` gave a Ki at Melanocortin receptor 4 of 1200 nM.

On to `NCCC(=O)N[C@H](Cc1ccc(Cl)cc1Cl)C(=O)N1CCN(c2ncccc2CNC(=O)OCc2ccccc2)CC1`, for which the Ki on Melanocortin receptor 4 was found to be 440 nM.

On to `COc1ccccc1CCNCc1cccnc1N1CCN(C(=O)[C@@H](Cc2ccc(Cl)cc2Cl)NC(C)=O)CC1`, for which the bioavailability in series [1] amounted to 0%. For the same compound, affinity on Melanocortin receptor 4 was put at a Ki of 10 nM. In series [2], this compound returned a CLint scaled of 3500 mL/min/kg.

In turn, `COCC(C)NCc1cccnc1N1CCN(C(=O)[C@@H](Cc2ccc(Cl)cc2Cl)NC(C)=O)CC1` (stereo not given in full) yielded a Ki on Melanocortin receptor 4 of 180 nM.

For the compound `NCCC(=O)N[C@H](Cc1ccc(Cl)cc1Cl)C(=O)N1CCN(c2ncccc2CNC(=O)Nc2ccccc2)CC1`, the affinity at Melanocortin receptor 4 corresponds to a Ki of 710 nM.

`NCCC(=O)N[C@H](Cc1ccc(Cl)cc1Cl)C(=O)N1CCN(c2ncccc2CNCC(F)(F)F)CC1`: on Melanocortin receptor 4, the Ki is 170 nM.

For the compound `COc1ccc(CC(=O)NCc2cccnc2N2CCN(C(=O)[C@@H](Cc3ccc(Cl)cc3Cl)NC(=O)CCN)CC2)cc1`, on Melanocortin receptor 4, the affinity, expressed as Ki, was 550 nM.

As for `COc1ccccc1NC(=O)NCc1cccnc1N1CCN(C(=O)[C@@H](Cc2ccc(Cl)cc2Cl)NC(=O)CCN)CC1`, the Ki on Melanocortin receptor 4 was found to be 1300 nM.

`CC(C)(CO)NCc1cccnc1N1CCN(C(=O)[C@@H](Cc2ccc(Cl)cc2Cl)NC(=O)CCN)CC1`: the Ki at Melanocortin receptor 4 was found to be 480 nM.

At Melanocortin receptor 4, `CCC(COC)NCc1cccnc1N1CCN(C(=O)[C@@H](Cc2ccc(Cl)cc2Cl)NC(=O)CCN)CC1` (stereo not given in full) registered a Ki of 200 nM.

`COc1ccccc1CNC(=O)NCc1cccnc1N1CCN(C(=O)[C@@H](Cc2ccc(Cl)cc2Cl)NC(=O)CCN)CC1` showed a Ki at Melanocortin receptor 4 of 560 nM.

At Melanocortin receptor 4, `COc1ccc(C(=O)NCc2cccnc2N2CCN(C(=O)[C@@H](Cc3ccc(Cl)cc3Cl)NC(=O)CCN)CC2)cc1` yielded a Ki of 1500 nM.

In turn, `NCCC(=O)N[C@H](Cc1ccc(Cl)cc1Cl)C(=O)N1CCN(c2ncccc2CNC(=O)Cc2ccccc2F)CC1` registered a Ki on Melanocortin receptor 4 of 450 nM.

On to `COc1ccccc1CCNCc1cccnc1N1CCN(C(=O)[C@@H](Cc2ccc(Cl)cc2Cl)NC(=O)CCN)CC1`, for which the Ki on Melanocortin receptor 5 came to 2100 nM; on Melanocortin receptor 4, 6.7 nM; on Melanocortin receptor 3 it was 5000 nM. The compound also registered a bioavailability in series [1] of 15%. In series [2], this compound displayed a CLint scaled of 390 mL/min/kg.

As to `COCC(=O)NCc1cccnc1N1CCN(C(=O)[C@@H](Cc2ccc(Cl)cc2Cl)NC(=O)CCN)CC1`, the affinity on Melanocortin receptor 4 corresponds to a Ki of 2800 nM.

Consider `COc1ccccc1OC(=O)NCc1cccnc1N1CCN(C(=O)[C@@H](Cc2ccc(Cl)cc2Cl)NC(=O)CCN)CC1`, for which the Ki on Melanocortin receptor 4 was determined as 1800 nM.

For `NCCC(=O)N[C@H](Cc1ccc(Cl)cc1Cl)C(=O)N1CCN(c2ncccc2CNCCc2ccccc2F)CC1`, the Ki at Melanocortin receptor 4 came out at 12 nM.

The compound `NCCC(=O)N[C@H](Cc1ccc(Cl)cc1Cl)C(=O)N1CCN(c2ncccc2CNC(=O)c2cccs2)CC1` showed a Ki at Melanocortin receptor 4 of 1800 nM.

Turning to `NCCC(=O)N[C@H](Cc1ccc(Cl)cc1Cl)C(=O)N1CCN(c2ncccc2CNCc2ccccc2F)CC1`, on Melanocortin receptor 4, the affinity, expressed as Ki, was 130 nM.

Take `COCC(C)NCc1cccnc1N1CCN(C(=O)[C@@H](Cc2ccc(Cl)cc2Cl)NC(=O)CCN)CC1` (stereo not given in full): at Melanocortin receptor 4, the Ki was determined as 87 nM.

In turn, `CC(=O)N[C@H](Cc1ccc(Cl)cc1Cl)C(=O)N1CCN(c2ncccc2CNCCc2cccs2)CC1` gave a Ki on Melanocortin receptor 4 of 21 nM.

Regarding `NCCC(=O)N[C@H](Cc1ccc(Cl)cc1Cl)C(=O)N1CCN(c2ncccc2CNC(CO)CO)CC1`, on Melanocortin receptor 4, the Ki came out at 1500 nM.

`NCCC(=O)N[C@H](Cc1ccc(Cl)cc1Cl)C(=O)N1CCN(c2ncccc2CNCCc2cccs2)CC1`: affinity at Melanocortin receptor 4 was put at a Ki of 15 nM.

In turn, `NCCC(=O)N[C@H](Cc1ccc(Cl)cc1Cl)C(=O)N1CCN(c2ncccc2CNC(=O)c2ccccc2)CC1` came in with a Ki at Melanocortin receptor 4 of 1800 nM.

At Melanocortin receptor 4, `NCCC(=O)N[C@H](Cc1ccc(Cl)cc1Cl)C(=O)N1CCN(c2ncccc2CNC(=O)Cc2cccs2)CC1` showed a Ki of 310 nM.
